pIC50: −log10 of the molar value. Activity calls are given as the source filed them. No cut-off for these calls is given here.
Columns and labels:
[1] = biological target: T1, Amine oxidase [flavin-containing] B (Homo sapiens, UniProt P27338)
T1 sequence (P27338 whole entry): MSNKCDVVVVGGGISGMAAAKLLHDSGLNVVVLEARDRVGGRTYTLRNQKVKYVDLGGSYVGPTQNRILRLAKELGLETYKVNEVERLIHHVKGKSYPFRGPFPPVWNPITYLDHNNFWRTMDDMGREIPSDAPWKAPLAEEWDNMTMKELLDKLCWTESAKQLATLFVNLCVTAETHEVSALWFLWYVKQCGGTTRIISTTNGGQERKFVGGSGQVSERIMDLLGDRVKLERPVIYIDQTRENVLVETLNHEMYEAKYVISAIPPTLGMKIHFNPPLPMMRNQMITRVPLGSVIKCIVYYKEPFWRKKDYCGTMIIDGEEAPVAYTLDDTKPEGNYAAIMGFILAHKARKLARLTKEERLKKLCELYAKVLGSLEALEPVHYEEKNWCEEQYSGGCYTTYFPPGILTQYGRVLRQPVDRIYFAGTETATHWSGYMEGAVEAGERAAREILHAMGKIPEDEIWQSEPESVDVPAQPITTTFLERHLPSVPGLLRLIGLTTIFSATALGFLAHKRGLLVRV
Description: Inhibition of recombinant MAO-B (unknown origin) incubated for 60 mins by luminescence based flow cytometry

[2] = Toxicity in BALB/c mouse xenografted with human A549 cells assessed as change in body weight at 10 mg/kg,ip administrated for 15 days; format: organism-based; details: in vivo, 360 h, time 15 day
HeLa = test: Antiproliferative activity against human HeLa cells assessed as inhibition of cell growth incubated for 72 hrs by CCK-8 assay; format: functional, cell-based
CYP2C9 = CYP2C9 (Homo sapiens, UniProt P11712); test: Inhibition of CYP2C9 (unknown origin) at 10 uM incubated for 20 mins in presence of NADPH by LC/MS/MS analysis relative to control; format: ADME
CYP3A4 = CYP3A4 (Homo sapiens, UniProt P08684); test: Inhibition of CYP3A4 (unknown origin) at 10 uM incubated for 20 mins in presence of NADPH by LC/MS/MS analysis relative to control; format: ADME
[3] = biological target: T2, Amine oxidase [flavin-containing] A (Homo sapiens, UniProt P21397)
T2 sequence (P21397 whole entry): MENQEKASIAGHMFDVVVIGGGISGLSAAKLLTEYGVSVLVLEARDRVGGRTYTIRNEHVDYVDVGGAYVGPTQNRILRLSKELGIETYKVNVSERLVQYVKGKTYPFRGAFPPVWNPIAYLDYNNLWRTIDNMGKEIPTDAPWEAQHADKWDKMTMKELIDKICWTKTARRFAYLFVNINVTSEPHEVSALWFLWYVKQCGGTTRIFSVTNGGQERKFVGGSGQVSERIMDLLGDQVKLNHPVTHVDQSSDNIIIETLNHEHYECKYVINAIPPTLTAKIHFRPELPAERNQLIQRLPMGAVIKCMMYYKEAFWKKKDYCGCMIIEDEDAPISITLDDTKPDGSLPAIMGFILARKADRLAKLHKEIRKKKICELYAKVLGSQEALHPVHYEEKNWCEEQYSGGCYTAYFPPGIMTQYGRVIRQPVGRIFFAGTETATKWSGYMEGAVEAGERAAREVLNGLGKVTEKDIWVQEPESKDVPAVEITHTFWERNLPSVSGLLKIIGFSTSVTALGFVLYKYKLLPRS
Description: Inhibition of recombinant MAO-A (unknown origin) incubated for 60 mins by luminescence based flow cytometry

A549 [4] = test: Induction of apoptosis in human A549 cells at 4 uM incubated for 48 hrs by Annexin V-FITC/PI staining based flow cytometry method; format: functional
CYP2D6 = CYP2D6 (Homo sapiens, UniProt P10635); test: Inhibition of CYP2D6 (unknown origin) at 10 uM incubated for 20 mins in presence of NADPH by LC/MS/MS analysis relative to control; format: ADME
in vitro = details: human, THLE-2 cells
Description: Antiproliferative activity against human THLE-2 cells assessed as inhibition of cell growth incubated for 72 hrs by CCK-8 assay

CYP1A2 = biological target: T3, CYP1A2 (Homo sapiens, UniProt P05177); test: Inhibition of CYP1A2 (unknown origin) at 10 uM incubated for 20 mins in presence of NADPH by LC/MS/MS analysis relative to control; format: ADME
T3 sequence (P05177 whole entry): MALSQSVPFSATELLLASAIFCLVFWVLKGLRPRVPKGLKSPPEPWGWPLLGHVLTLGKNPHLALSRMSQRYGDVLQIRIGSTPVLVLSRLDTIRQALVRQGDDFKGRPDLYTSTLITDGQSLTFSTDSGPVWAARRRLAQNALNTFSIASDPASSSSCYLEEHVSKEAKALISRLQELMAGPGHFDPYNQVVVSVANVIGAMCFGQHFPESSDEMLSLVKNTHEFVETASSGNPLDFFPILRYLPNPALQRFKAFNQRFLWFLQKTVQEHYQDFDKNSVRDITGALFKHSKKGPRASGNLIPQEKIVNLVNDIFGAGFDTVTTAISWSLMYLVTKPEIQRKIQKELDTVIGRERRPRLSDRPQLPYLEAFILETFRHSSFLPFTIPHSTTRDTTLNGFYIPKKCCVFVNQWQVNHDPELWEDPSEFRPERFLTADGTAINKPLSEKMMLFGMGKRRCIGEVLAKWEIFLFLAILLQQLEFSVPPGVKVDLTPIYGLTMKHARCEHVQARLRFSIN

[5] = Intrinsic clearance in human liver measured upto 60 mins in presence of NADPH by LC/MS/MS analysis; format: ADME, tissue-based; details: read-out: CLH
A549 [6] = test: cells; details: Homo sapiens, A549, 72 h
Description: Antiproliferative activity against human A549 cells assessed as inhibition of cell growth incubated for 72 hrs by CCK-8 assay

MGC-803 = test: cells; details: Homo sapiens, MGC-803, 72 h
Description: Antiproliferative activity against human MGC-803 cells assessed as inhibition of cell growth incubated for 72 hrs by CCK-8 assay

CYP2C19 = CYP2C19 (Homo sapiens, UniProt P33261); test: Inhibition of CYP2C19 (unknown origin) at 10 uM incubated for 20 mins in presence of NADPH by LC/MS/MS analysis relative to control; format: ADME
MCF7 = test: cells; details: Homo sapiens, MCF7, 72 h
Description: Antiproliferative activity against human MCF7 cells assessed as inhibition of cell growth incubated for 72 hrs by CCK-8 assay

[7] = biological target: Voltage-gated inwardly rectifying potassium channel KCNH2 (Homo sapiens, UniProt Q12809); test: Inhibition of human ERG stably expressed in CHO cells by patch clamp assay; format: toxicity, cell-based
NCI-H460 = test: cells; details: Homo sapiens, NCI-H460, 72 h
Description: Antiproliferative activity against human NCI-H460 cells assessed as inhibition of cell growth incubated for 72 hrs by CCK-8 assay

[8] = Half life in human liver microsomes measured upto 60 mins in presence of NADPH by LC/MS/MS analysis; format: ADME, Microsome
[9] = Intrinsic clearance in human liver microsomes measured upto 60 mins in presence of NADPH by LC/MS/MS analysis; format: ADME, Microsome; details: read-out: CLH
A549 [10] = test: Antitumor activity against human A549 cells xenografted in BALB/c mouse assessed as reduction in tumor growth at 10 mg/kg,ip administrated for 15 days; format: functional, organism-based; details: time 15.0 day

CYP2D6, sequence (P10635 whole entry): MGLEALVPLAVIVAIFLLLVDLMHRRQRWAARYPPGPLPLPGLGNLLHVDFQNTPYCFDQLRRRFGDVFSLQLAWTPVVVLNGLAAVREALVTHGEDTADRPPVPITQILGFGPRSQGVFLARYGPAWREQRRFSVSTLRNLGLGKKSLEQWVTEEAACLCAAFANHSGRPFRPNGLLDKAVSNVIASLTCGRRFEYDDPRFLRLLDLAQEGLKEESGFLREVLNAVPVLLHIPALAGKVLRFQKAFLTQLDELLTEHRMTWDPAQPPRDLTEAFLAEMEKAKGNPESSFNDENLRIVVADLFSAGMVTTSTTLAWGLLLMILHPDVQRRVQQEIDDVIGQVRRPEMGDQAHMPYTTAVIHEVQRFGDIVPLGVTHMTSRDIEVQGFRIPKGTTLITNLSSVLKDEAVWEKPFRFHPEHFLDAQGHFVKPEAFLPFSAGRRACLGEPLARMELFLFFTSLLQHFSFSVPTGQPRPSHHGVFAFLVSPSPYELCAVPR
CYP2C19, sequence (P33261 whole entry): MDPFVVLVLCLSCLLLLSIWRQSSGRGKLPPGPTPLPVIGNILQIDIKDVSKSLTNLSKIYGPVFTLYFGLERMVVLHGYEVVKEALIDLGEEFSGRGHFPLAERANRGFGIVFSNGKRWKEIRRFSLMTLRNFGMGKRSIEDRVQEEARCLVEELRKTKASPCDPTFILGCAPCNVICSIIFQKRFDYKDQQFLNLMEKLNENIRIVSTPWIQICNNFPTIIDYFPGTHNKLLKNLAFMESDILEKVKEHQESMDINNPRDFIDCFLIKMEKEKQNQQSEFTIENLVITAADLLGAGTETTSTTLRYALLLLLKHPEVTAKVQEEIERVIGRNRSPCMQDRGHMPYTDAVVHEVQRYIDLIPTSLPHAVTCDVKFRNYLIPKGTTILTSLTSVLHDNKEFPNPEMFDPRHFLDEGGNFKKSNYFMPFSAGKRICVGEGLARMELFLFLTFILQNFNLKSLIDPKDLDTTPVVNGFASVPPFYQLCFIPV
CYP2C9, sequence (P11712 whole entry): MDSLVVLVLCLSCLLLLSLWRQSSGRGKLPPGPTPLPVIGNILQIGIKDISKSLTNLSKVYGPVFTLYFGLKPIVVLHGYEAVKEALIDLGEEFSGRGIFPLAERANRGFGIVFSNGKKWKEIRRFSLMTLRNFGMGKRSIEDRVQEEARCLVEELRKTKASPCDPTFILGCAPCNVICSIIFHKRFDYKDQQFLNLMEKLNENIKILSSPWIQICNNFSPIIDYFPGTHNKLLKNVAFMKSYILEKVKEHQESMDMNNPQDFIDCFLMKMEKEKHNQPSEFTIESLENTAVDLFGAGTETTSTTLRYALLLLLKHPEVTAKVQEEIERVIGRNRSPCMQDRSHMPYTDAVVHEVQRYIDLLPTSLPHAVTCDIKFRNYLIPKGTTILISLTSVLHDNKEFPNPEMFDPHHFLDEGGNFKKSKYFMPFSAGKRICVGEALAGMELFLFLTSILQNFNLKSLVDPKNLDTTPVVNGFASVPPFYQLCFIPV
Voltage-gated inwardly rectifying potassium channel KCNH2, sequence (Q12809 whole entry): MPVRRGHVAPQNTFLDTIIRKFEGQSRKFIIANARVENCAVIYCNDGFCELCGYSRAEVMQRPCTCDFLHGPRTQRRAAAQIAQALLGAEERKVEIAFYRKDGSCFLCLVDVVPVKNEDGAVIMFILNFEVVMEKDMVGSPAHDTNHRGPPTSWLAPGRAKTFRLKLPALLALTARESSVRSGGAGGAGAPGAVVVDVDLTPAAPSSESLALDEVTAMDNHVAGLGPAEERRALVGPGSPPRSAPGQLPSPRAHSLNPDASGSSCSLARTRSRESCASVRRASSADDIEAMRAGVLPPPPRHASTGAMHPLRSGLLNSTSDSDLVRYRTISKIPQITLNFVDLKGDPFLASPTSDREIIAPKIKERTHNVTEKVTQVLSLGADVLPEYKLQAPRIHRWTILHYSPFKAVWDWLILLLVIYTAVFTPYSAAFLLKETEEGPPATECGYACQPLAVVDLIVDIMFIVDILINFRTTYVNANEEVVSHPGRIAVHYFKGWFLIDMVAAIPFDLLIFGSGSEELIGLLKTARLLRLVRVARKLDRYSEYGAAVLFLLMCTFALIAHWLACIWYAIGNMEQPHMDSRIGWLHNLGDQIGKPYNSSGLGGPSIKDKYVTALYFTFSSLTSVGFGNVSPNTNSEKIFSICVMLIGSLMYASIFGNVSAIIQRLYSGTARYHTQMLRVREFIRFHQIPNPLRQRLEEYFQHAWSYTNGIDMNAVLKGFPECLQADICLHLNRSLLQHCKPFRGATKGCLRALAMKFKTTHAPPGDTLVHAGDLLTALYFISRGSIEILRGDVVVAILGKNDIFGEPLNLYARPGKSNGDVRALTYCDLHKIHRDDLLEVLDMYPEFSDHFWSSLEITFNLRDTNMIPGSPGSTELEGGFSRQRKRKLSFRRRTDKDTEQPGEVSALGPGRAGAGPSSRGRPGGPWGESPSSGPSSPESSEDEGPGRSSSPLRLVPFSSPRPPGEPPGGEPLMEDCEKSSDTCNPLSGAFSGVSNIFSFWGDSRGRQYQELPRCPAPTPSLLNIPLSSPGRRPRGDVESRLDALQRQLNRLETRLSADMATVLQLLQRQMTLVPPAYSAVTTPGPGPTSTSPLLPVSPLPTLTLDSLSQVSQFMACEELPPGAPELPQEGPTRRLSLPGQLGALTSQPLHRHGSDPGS
CYP3A4, sequence (P08684 whole entry): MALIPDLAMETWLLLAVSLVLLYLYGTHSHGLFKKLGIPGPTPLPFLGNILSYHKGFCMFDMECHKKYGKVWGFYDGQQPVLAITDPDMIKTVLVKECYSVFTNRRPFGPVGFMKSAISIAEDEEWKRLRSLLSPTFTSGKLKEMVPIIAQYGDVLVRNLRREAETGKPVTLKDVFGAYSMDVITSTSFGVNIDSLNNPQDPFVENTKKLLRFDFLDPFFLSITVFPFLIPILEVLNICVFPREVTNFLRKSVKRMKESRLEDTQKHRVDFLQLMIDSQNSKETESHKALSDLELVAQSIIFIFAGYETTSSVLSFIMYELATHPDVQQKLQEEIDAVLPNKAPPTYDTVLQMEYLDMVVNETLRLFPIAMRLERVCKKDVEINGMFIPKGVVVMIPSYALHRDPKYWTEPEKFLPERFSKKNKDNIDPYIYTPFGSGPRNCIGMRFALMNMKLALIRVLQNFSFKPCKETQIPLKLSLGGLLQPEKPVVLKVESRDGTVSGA

With `Cc1ccc(-c2cc3occ(CN4CCC[C@H](N)C4)c3cc2-c2ccc(C#N)cc2)cc1` the pIC50 [1] was under 4.70, the Activity [2] was “Non-Toxic” and the pIC50 (HeLa) was 4.99. The inhibition at 20 min, 10 µM (CYP2C9) was 3.6%, the inhibition at 20 min, 10 µM (CYP3A4) was 19% and the pIC50 [3] was under 4.70. The Activity (A549 [4]) was 20.94%, the inhibition at 20 min, 10 µM (CYP2D6) was 88.6% and the IC50 at 72 h (in vitro) was 5.7 µM. The inhibition at 20 min, 10 µM (CYP1A2) was 4.9%, the CLint scaled [5] was 22.1 mL/min/kg and the pIC50 (A549 [6]) was 5.44. It also gave a pIC50 (MGC-803) of 4.94, an inhibition at 20 min, 10 µM (CYP2C19) of 10.5% and a pIC50 (MCF7) of 4.98. For the same compound, the pIC50 [7] was 5.22, the pIC50 (NCI-H460) was 5.32 and the half-life [8] was 56.6 min. The microsomal CLint [9] was 24.5 µL/min/mg and the Activity (A549 [10]) was “Active”.

From ChEMBL document CHEMBL5352388 (Eur J Med Chem, 2022)
